The values below come from patent US6355633B1, “Aryl sulfonic acids and derivatives as FSH antagonists” (American Home Products Corporation, priority 1999, dated 2002).

The target in experiment [1] is T1, FSH receptor (Homo sapiens, UniProt P23945).
T1 sequence (P23945 18-695): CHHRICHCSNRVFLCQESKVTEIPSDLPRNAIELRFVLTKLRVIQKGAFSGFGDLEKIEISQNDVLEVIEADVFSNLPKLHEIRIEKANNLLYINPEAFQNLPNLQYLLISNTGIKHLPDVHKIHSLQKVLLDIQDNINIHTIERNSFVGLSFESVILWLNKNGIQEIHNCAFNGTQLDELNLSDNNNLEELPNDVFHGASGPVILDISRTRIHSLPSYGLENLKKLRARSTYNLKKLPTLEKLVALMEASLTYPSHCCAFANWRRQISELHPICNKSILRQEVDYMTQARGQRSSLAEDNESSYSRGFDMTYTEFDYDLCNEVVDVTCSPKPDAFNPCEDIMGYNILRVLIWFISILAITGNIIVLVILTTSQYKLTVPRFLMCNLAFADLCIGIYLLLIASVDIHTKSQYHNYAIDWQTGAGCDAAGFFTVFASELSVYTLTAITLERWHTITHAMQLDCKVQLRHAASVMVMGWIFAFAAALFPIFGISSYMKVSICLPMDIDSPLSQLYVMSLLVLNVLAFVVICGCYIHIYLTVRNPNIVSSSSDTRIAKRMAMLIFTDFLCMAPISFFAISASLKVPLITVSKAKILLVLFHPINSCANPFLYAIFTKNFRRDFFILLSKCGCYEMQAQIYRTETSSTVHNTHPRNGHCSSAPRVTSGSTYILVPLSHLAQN
The experiment is described as follows: FSH Receptor Radioligand Membrane Binding Standard Pharmacological Test Procedure. Also noted: expressed in transfected cells. As to conditions: [125I]FSH binding to membranes of CHO cells stably transfected with the human FSH receptor. An outline of the steps: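 Membranes from CHO cells stably expressing human FSH receptor; compounds pre-incubated 15 min at room temperature, then [125I]FSH added (diluted to 200 pM before addition) for 2 h at room temperature in pH 7.2 Tris buffer with protease inhibitors and BSA. Bound radioactivity after filtration counted by gamma counter; non-specific binding defined with unlabelled human FSH.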

Experiment [2] concerns FSH-induced changes in ovarian follicular maturation. The experiment is described as follows: Immature Rat Test Procedure (FSH-induced organ wet weight). Type of experiment: in vivo. As to conditions: immature rats, twice daily for three days with half-maximal dose of hFSH; for IC50 (mg/Kg) ovaries: ovarian wet weight; for IC50 (mg/Kg) uterus: uterine wet weight. The protocol:
Immature Rat Test Procedure
In order to assess the ability of compounds to affect FSH-induced changes in ovarian follicular maturation in vivo, immature rats (18 days of age) are treated twice daily for three days with compound in the presence of a half-maximal dose of purified human FSH. Animals are treated via the i.p. or p.o. routes. On the fourth day following treatment, animals are euthanized and the ovaries, uterus and spleen (the spleen is a control tissue that should not respond to FHS stimulation) collected for wet weight determination. In each experiment animals treated with vehicle alone or FSH alone are used as negative and positive controls, respectively.

By IC50 is commonly meant the midpoint of a concentration-inhibition curve. Lower therefore signals greater potency. For the compound `COCCNS(=O)(=O)c1cc(C(=O)Nc2ccc(/C=C/c3ccc(NC(=O)c4ccc(OC)c(S(=O)(=O)NCCOC)c4)cc3S(=O)(=O)O)c(S(=O)(=O)O)c2)ccc1OC` [Example 30m, 2,2′-[(E)-1,2-Ethenediyl]bis[5-[[4-methoxy-3-[[(2-methoxyethyl)amino]sulfonyl]benzoyl]amino]benzenesulfonic Acid]], in experiment [1], the IC50 came out at 2200 nM.

In experiment [1], `COc1ccc(C(=O)Nc2ccc(/C=C/c3ccc(NC(=O)c4ccc(OC)c(S(=O)(=O)N5CCCC5)c4)cc3S(=O)(=O)O)c(S(=O)(=O)O)c2)cc1S(=O)(=O)N1CCCC1` [Example 33e, 2,2′-[(E)-1,2-Ethenediyl]bis[5-[[4-methoxy-3-(1-pyrrolidinylsulfonyl)benzoyl]amino]benzenesulfonic Acid]] gave a concentration for half-maximal inhibition (IC50) of 4300 nM.

As to `COc1ccc(C(=O)Nc2ccc(/C=C/c3ccc(NC(=O)c4ccc(OC)c(S(=O)(=O)N5CCN(C=O)CC5)c4)cc3S(=O)(=O)O)c(S(=O)(=O)O)c2)cc1S(=O)(=O)N1CCN(C=O)CC1` [Example 34b, 2,2′-[(E)-1,2-Ethenediyl]bis[5-[[3-[(4-formyl-1-piperazinyl)sulfonyl]-4-methoxybenzoyl]amino]benzenesulfonic Acid]], the IC50 in experiment [1] came out at 1600 nM.

`O=C(Nc1ccc(/C=C/c2ccc(NC(=O)c3ccc(OC4CCOCC4)c(S(=O)(=O)N4CCOCC4)c3)cc2S(=O)(=O)O)c(S(=O)(=O)O)c1)c1ccc(OC2CCOCC2)c(S(=O)(=O)N2CCOCC2)c1` [Example 30r, 2,2′-[(E)-1,2-Ethenediyl]bis[5-[[3-(4-morpholinylsulfonyl)-4-[(tetrahydro-2H-pyran-4-yl)oxy]benzoyl]amino]benzenesulfonic Acid]] came in with an IC50 in experiment [1] of 1100 nM.

`COc1ccc(C(=O)Nc2ccc(/C=C/c3ccc(NC(=O)c4ccc(OC)c(S(=O)(=O)N5CCS(=O)(=O)CC5)c4)cc3S(=O)(=O)O)c(S(=O)(=O)O)c2)cc1S(=O)(=O)N1CCS(=O)(=O)CC1` [Example 30k, 2,2′-[(E)-1,2-Ethenediyl]bis[5-[[3-[(1,1-dioxido-4-thiomorpholinyl)sulfonyl]-4-methoxybenzoyl]amino]benzenesulfonic Acid]]: the IC50 in experiment [1] worked out at 2000 nM.

Take `COCCOCCOc1ccc(C(=O)Nc2ccc(/C=C/c3ccc(NC(=O)c4ccc(OCCOCCOC)c(S(=O)(=O)N5CCOCC5)c4)cc3S(=O)(=O)O)c(S(=O)(=O)O)c2)cc1S(=O)(=O)N1CCOCC1` [Example 30a, 2,2′-[(E)-1,2-Ethenediyl]bis[5-[[4-[2-(2-methoxyethoxy)ethoxy]-3-(4-morpholinylsulfonyl)benzoyl]amino]benzenesulfonic Acid]]: in experiment [1], the IC50 is 1600 nM.

As for `COc1ccc(C(=O)Nc2ccc(/C=C/c3ccc(NC(=O)c4ccc(OC)c(S(=O)(=O)N5CCOCC5)c4)cc3S(=O)(=O)O)c(S(=O)(=O)O)c2)cc1S(=O)(=O)N1CCOCC1` [Example 30s, 2,2′-[(E)-1,2-Ethenediyl]bis[5-[[4-methoxy-3-(4-morpholinylsulfonyl)benzoyl]amino]benzenesulfonic Acid]], in experiment [1], the IC50 was 3000 nM. This IC50 lies about 1.9-fold higher than the previous one.

In the case of “2,2′-[(E)-1,2-Ethenediyl]bis[5-[[4-(methylthio)-3-(4-morpholinylsulfonyl)benzoyl]amino]benzenesulfonic Acid] [Example 30b]”, in experiment [2] (ip), the “IC50 (mg/Kg) ovaries” value stood at 8.1 mg/kg and the “IC50 (mg/Kg) uterus” value stood at 1.3 mg/kg. Further, in experiment [2] (po), the “IC50 (mg/Kg) ovaries” value turned out to be 23 mg/kg and the “IC50 (mg/Kg) uterus” value was 10 mg/kg. Moreover, the IC50 in experiment [1] was 1200 nM.

Regarding `COc1ccc(C(=O)Nc2ccc(/C=C/c3ccc(NC(=O)c4ccc(S(C)(=O)=O)cc4)cc3S(=O)(=O)O)c(S(=O)(=O)O)c2)cc1S(=O)(=O)N1CCOCC1` [Example 30g], the IC50 in experiment [1] was determined as 1600 nM.

`CS(=O)(=O)c1ccc(C(=O)Nc2ccc(/C=C/c3ccc(NC(=O)c4ccc(S(C)(=O)=O)c([N+](=O)[O-])c4)cc3S(=O)(=O)O)c(S(=O)(=O)O)c2)cc1[N+](=O)[O-]` [Example 30c, 2.2′-[(E)-1,2-Ethenediyl]bis[5-[[(4-methylsulfonyl)-3-(nitro)-benzoyl]amino]benzenesulfonic Acid]] displayed an IC50 in experiment [1] of 1600 nM.

As for `COc1ccc(C(=O)Nc2ccc(CCc3ccc(NC(=O)c4ccc(S(C)(=O)=O)cc4)cc3S(=O)(=O)O)c(S(=O)(=O)O)c2)cc1S(=O)(=O)N1CCOCC1` [Example 43a, 5-[[4-Methoxy-3-(4-morpholinylsulfonyl)benzoyl]amino]-2-[2-[4-[[4-(methylsulfonyl)benzoyl]amino]-2-sulfophenyl]ethyl]benzenesulfonic Acid], the IC50 in experiment [1] was 2000 nM.

In experiment [1], `COc1ccc(C(=O)Nc2ccc(/C=C/c3ccc(NC(=O)c4ccc(OC)c(S(=O)(=O)N5CCN(C(C)=O)CC5)c4)cc3S(=O)(=O)O)c(S(=O)(=O)O)c2)cc1S(=O)(=O)N1CCN(C(C)=O)CC1` [Example 34a, 2,2′-[(E)-1,2-Ethenediyl]bis[5-[[3-[(4-acetyl-1-piperazinyl)sulfonyl]-4-methoxybenzoyl]amino]benzenesulfonic Acid]] came in with an IC50 of 3800 nM.

Take `CSc1ccc(C(=O)Nc2ccc(/C=C/c3ccc(NC(=O)c4ccc(S(C)(=O)=O)c([N+](=O)[O-])c4)cc3S(=O)(=O)O)c(S(=O)(=O)O)c2)cc1S(=O)(=O)N1CCOCC1` [Example 30e]: the IC50 in experiment [1] worked out at 2500 nM.

`CS(=O)(=O)c1ccc(C(=O)Nc2ccc(/C=C/c3ccc(NC(=O)c4ccc(S(C)(=O)=O)cc4)cc3S(=O)(=O)O)c(S(=O)(=O)O)c2)cc1` [Example 30q, 2,2′-[(E)-1,2-Ethenediyl]bis[5-[[4-(methylsulfonyl)benzoyl]amino]benzenesulfonic Acid]] displayed an IC50 in experiment [1] of 4000 nM.

For the compound `CS(=O)(=O)c1ccc(C(=O)Nc2ccc(/C=C/c3ccc(NC(=O)c4ccc(S(C)(=O)=O)c(S(=O)(=O)N5CCOCC5)c4)cc3S(=O)(=O)O)c(S(=O)(=O)O)c2)cc1S(=O)(=O)N1CCOCC1` [Example 30d, 2,2′-[(E)-1,2-Ethenediyl]bis[5-[[4-(methylsulfonyl)-3-(4-morpholinylsulfonyl)benzoyl]amino]benzenesulfonic Acid]], the IC50 in experiment [1] stood at 1500 nM.

In experiment [1], `COCCOc1ccc(C(=O)Nc2ccc(/C=C/c3ccc(NC(=O)c4ccc(OCCOC)c(S(=O)(=O)N5CCOCC5)c4)cc3S(=O)(=O)O)c(S(=O)(=O)O)c2)cc1S(=O)(=O)N1CCOCC1` [Example 30t, 2,2′-[(E)-1,2-Ethenediyl]bis[5-[[4-(2-methoxyethoxy)-3-(4-morpholinylsulfony)benzoyl]amino]benzenesulfonic Acid]] yielded an IC50 of 1300 nM.

Regarding `COCCNS(=O)(=O)c1cc(C(=O)Nc2ccc(/C=C/c3ccc(NC(=O)c4ccc(S(C)(=O)=O)c([N+](=O)[O-])c4)cc3S(=O)(=O)O)c(S(=O)(=O)O)c2)ccc1OC` [Example 30f], in experiment [1], the IC50 was determined as 1900 nM. The IC50 values of the last two compounds are within 1.5-fold of each other.

`COc1ccc(C(=O)Nc2ccc(/C=C/c3ccc(NC(=O)c4ccc(OC)c(S(=O)(=O)N5CCSCC5)c4)cc3S(=O)(=O)O)c(S(=O)(=O)O)c2)cc1S(=O)(=O)N1CCSCC1` [Example 33d, 2,2′-[(E)-1,2-Ethenediyl]bis[5-[[4-methoxy-3-(4-thiomorpholinylsulfonyl)benzoyl]amino]benzenesulfonic Acid]]: the IC50 in experiment [1] was determined as 5200 nM.

For the compound `CCS(=O)(=O)c1ccc(C(=O)Nc2ccc(/C=C/c3ccc(NC(=O)c4ccc(S(=O)(=O)CC)cc4)cc3S(=O)(=O)O)c(S(=O)(=O)O)c2)cc1` [Example 32f, 2,2′-[(E)-1,2-Ethenediyl]bis[5-[[4-(ethylsulfonyl)benzoyl]amino]benzenesulfonic Acid]], the IC50 in experiment [1] stood at 2900 nM.
